Laboratory results as given in a polymer gas permeability compilation.

| Structure (SMILES) | CH4 permeability [Barrer] | CO2 permeability [Barrer] | H2 permeability [Barrer] | N2 permeability [Barrer] | O2 permeability [Barrer] |
| --- | --- | --- | --- | --- | --- |
| */C(C)=C(/*)c1ccc([Si](C)(C)C)cc1 (repeat unit) | 200 | 950 | 510 | 100 | 240 |
| */C=C/C1CC(*)CC1[Si](C)(C)C (repeat unit) | 17 | 89 | 140 | 7.2 | 30 |
| */C=C/c1ccc(*)cc1[Si](CC)(CC)CC (repeat unit) | – | 24 | – | 1.8 | 6.6 |
| *C(=C(*)c1ccc(C(C)(C)C)cc1)c1ccccc1 (repeat unit) | – | 6200 | – | 930 | 1710 |
| *C(=C(*)c1ccc(C(C)C)cc1)c1ccccc1 (repeat unit) | – | 1100 | – | 150 | 300 |
| *C(=C(*)c1ccc([Si](C)(C)CCCCCCCC)cc1)c1ccc(C(C)(C)C)cc1 (repeat unit) | – | 100 | – | 7.5 | 26 |
| *C(=C(*)c1ccc([Si](C)(C)CCCCCCCC)cc1)c1ccc(C(C)C)cc1 (repeat unit) | – | 120 | – | 9.1 | 29 |
| *C(=C(*)c1ccc([Si](C)(C)CCCCCCCC)cc1)c1ccccc1 (repeat unit) | – | 170 | – | 11 | 34 |
| *C(=C(*)c1ccccc1)c1ccccc1 (repeat unit) | 3700 | 6600 | – | 2720 | 3600 |
| *C(=O)c1ccc(C2(c3ccc(C(=O)c4ccc(Oc5ccc(C(=O)c6ccc(Oc7ccc(*)cc7)cc6)cc5)cc4)cc3)OC(=O)c3ccccc32)cc1 (repeat unit) | 0.1 | 3.1 | 9.2 | 0.0986 | 0.68 |
| *C(=O)c1ccc(C2(c3ccc(C(=O)c4ccc(Oc5ccc(C(=O)c6cccc(C(=O)c7ccc(Oc8ccc(*)cc8)cc7)c6)cc5)cc4)cc3)OC(=O)c3ccccc32)cc1 (repeat unit) | 0.0276 | 0.91 | 5.3 | 0.031 | 0.27 |
| *C(=O)c1ccc([Si](C)(C)c2ccc(C(*)=O)cc2)cc1 (repeat unit) | 1.39 | 22.2 | 27.1 | 1.37 | 5.54 |
| *C(=O)n1c(*)nc2cc3nc4c5ccc(*)c6c(*)ccc(c(=O)n4c3cc21)c65 (repeat unit) | 0.0017 | 0.12 | – | 0.00259 | 0.021 |
| *C(C)=C(*)CCC (repeat unit) | 21 | 120 | 160 | 12 | 39 |
| *C(C)=C(*)CCC(C)C (repeat unit) | 112 | 390 | 370 | 51 | 130 |
| *C(Cl)CCCC(*)S(=O)(=O)Cl (repeat unit) | – | – | 13.3 | 0.955 | 3.29 |
| *C/C=C\C* (repeat unit) | – | 138 | 41.9 | 15.8 | 19 |
| *CC(*)(C)C#N (repeat unit) | – | 0.0032 | – | – | 0.0012 |
| *CC(*)(Cl)Cl (repeat unit) | – | 0.029 | – | 0.000939 | 0.00519 |

| Structure (SMILES) | CH4 permeability [Barrer] | CO2 permeability [Barrer] | H2 permeability [Barrer] | N2 permeability [Barrer] | O2 permeability [Barrer] |
| --- | --- | --- | --- | --- | --- |
| *CC(*)C#N (repeat unit) | – | 0.0018 | – | 0.00016 | 0.00028 |
| *CC(*)CC(C)C (repeat unit) | – | 92.6 | – | – | 32.3 |
| *CC(*)F (repeat unit) | – | 0.0791 | 0.35 | – | – |
| *CC(*)O (repeat unit) | – | 1.2e-06 | – | – | 7e-07 |
| *CC(*)OC(=O)c1ccccc1 (repeat unit) | – | 6.32 | – | – | – |
| *CC(*)OC(C)=O (repeat unit) | – | – | 9.19 | – | 0.488 |
| *CC(*)OC1CCCCC1 (repeat unit) | – | 13.6 | – | 0.99 | 3.69 |
| *CC(*)OCC1CC2CC1C1CCCC21 (repeat unit) | – | 2.85 | – | 0.13 | 0.81 |
| *CC(*)OCC1CCCCC1 (repeat unit) | – | 5.89 | – | 0.4 | 1.55 |
| *CC(*)[Si](C)(C)c1ccccc1 (repeat unit) | – | 12.3 | – | 0.45 | 2.47 |
| *CC(*)c1ccc(C([Si](C)(C)C)[Si](C)(C)C)cc1 (repeat unit) | – | 150 | – | 10.1 | 37.7 |
| *CC(CCl)O* (repeat unit) | – | – | 8.9 | 0.44 | 1.05 |
| *CCC(F)(Cl)C(*)(F)F (repeat unit) | – | 0.607 | – | 0.061 | 0.152 |
| *CCSS* (repeat unit) | – | 3.14 | 1.57 | – | 0.288 |
| *Cc1ccc(C*)c(Br)c1 (repeat unit) | – | 0.036 | 0.452 | – | – |
| *Cc1ccc(C*)c(C#N)c1 (repeat unit) | – | 0.301 | 1.78 | – | 0.0904 |
| *Cc1ccc(C*)c(CC)c1 (repeat unit) | – | 1.89 | 4.31 | 0.0904 | 0.5 |
| *N=P(*)(C)C (repeat unit) | – | 29.4 | – | 1.27 | 3.53 |
| *NCCCCCC(*)=O (repeat unit) | – | 0.165 | – | – | 0.036 |

| Structure (SMILES) | CH4 permeability [Barrer] | CO2 permeability [Barrer] | H2 permeability [Barrer] | N2 permeability [Barrer] | O2 permeability [Barrer] |
| --- | --- | --- | --- | --- | --- |
| *NCCCCCCCCCCC(*)=O (repeat unit) | – | 1 | 2.63 | – | – |
| *Nc1ccc(*)cc1OCC (repeat unit) | – | 2.22 | 8.1 | 0.107 | 0.62 |
| *OC1OC(CO[N+](=O)[O-])C(OC2OC(O[N+](=O)[O-])C(O*)C(O)C2O[N+](=O)[O-])C(O)C1O[N+](=O)[O-] (repeat unit) | – | – | 2 | 0.12 | 0.6 |
| *Oc1cc2c(cc1O*)C1(CC2(C)C)CC(C)(C)c2cc3c(cc21)Oc1c(C#N)c(*)c(*)c(C(=O)O)c1O3 (repeat unit) | – | 2540 | 1540 | 162 | 534 |
| *Oc1ccc(-c2nn(-c3ccc(S(=O)(=O)c4ccc(*)cc4)cc3)c(=O)c3ccccc23)cc1 (repeat unit) | – | 0.92 | 2.4 | 0.027 | 0.15 |
| *Oc1ccc(Oc2ccc3c(c2)-c2nc4cc(Oc5ccc6nc7n(c6c5)C(=O)c5cc(*)ccc5-7)ccc4n2C3=O)cc1 (repeat unit) | – | – | 5.34 | 0.036 | 0.23 |
| *Oc1ccc(S(=O)(=O)c2ccc(Oc3c(C)cc(C(C)(C)c4cc(C)c(*)c(C)c4)cc3C)cc2C(O)(C(F)(F)F)C(F)(F)F)c(C(O)(C(F)(F)F)C(F)(F)F)c1 (repeat unit) | – | 30 | – | 1.5 | 8.5 |
| *Oc1ccc(S(=O)(=O)c2ccc(Oc3ccc(C(C)(C)c4ccc(*)c(C(OC)(C(F)(F)F)C(F)(F)F)c4)cc3C(OC)(C(F)(F)F)C(F)(F)F)cc2)cc1 (repeat unit) | – | 7.7 | – | 0.26 | 2 |
| *Oc1ccc2c(c1)-c1nc3cc(Oc4ccc5nc6n(c5c4)C(=O)c4cc(*)ccc4-6)ccc3n1C2=O (repeat unit) | – | – | 6.88 | 0.026 | 0.22 |
| *c1c(C)c(C)c(N2C(=O)c3ccc(C(=O)c4ccc5c(c4)C(=O)N(*)C5=O)cc3C2=O)c(C)c1C (repeat unit) | – | – | 108 | 2.63 | 11.8 |
| *c1c(C)cc(-c2cc(C)c(N3C(=O)c4ccc(C(=O)Oc5ccc(C(c6ccc(OC(=O)c7ccc8c(c7)C(=O)N(*)C8=O)cc6)(C(F)(F)F)C(F)(F)F)cc5)cc4C3=O)c(C)c2)cc1C (repeat unit) | – | – | 38 | 0.549 | 3.02 |
| *c1c(C)cc(C)c(N2C(=O)c3ccc(S(=O)(=O)c4ccc5c(c4)C(=O)N(*)C5=O)cc3C2=O)c1C (repeat unit) | – | – | 47.1 | 1.02 | 5.69 |
| *c1cc(CCCCCCCCCCCC)c(*)s1 (repeat unit) | – | 88.2 | – | 9.4 | 20.2 |
| *c1ccc(-c2ccc(N3C(=O)c4ccc(C(c5ccc6c(c5)C(=O)N(*)C6=O)(C(F)(F)F)C(F)(F)F)cc4C3=O)c(N)c2)cc1N (repeat unit) | – | 138 | – | 5.2 | 34 |
| *c1ccc(-c2ccc(N3C(=O)c4ccc([Si](C)(C)c5ccc6c(c5)C(=O)N(*)C6=O)cc4C3=O)c(C)c2)cc1C (repeat unit) | – | – | 10.9 | 0.094 | 0.663 |
| *c1ccc(Oc2ccc(C(C)(C)c3ccc(Oc4ccc(N5C(=O)c6ccc(Oc7ccc8c(c7)C(=O)N(*)C8=O)cc6C5=O)cc4)cc3)cc2)cc1 (repeat unit) | – | 2.7 | 8 | 0.07 | 0.49 |
| *c1ccc2c(c1)-c1nc3ccc(-c4ccc5c(c4)nc4n5C(=O)c5cc(C(c6ccc7c(c6)C(=O)N(c6cc(C(c8ccc(O)c(N9C(=O)c%10ccc(C(*)(C(F)(F)F)C(F)(F)F)cc%10C9=O)c8)(C(F)(F)F)C(F)(F)F)ccc6O)C7=O)(C(F)(F)F)C(F)(F)F)ccc5-4)cc3n1C2=O (repeat unit) | – | 15 | – | 0.53 | 3.2 |
| *c1ccc2c(c1)C(=O)N(c1ccc(Oc3ccc(N4C(=O)c5ccc(-c6nc7ccc(Cc8ccc9nc(*)oc(=O)c9c8)cc7c(=O)o6)cc5C4=O)cc3)cc1)C2=O (repeat unit) | – | 0.26 | 2.56 | – | – |
